# According to patent US10538561B2, “Peptide for treating inflammatory diseases” (priority 2015, dated 2020):
# Assays:
# [1] = system: Imiquimod (IMQ) induced psoriasis; assay: Imiquimod (IMQ) induced psoriasis model; type: in vivo, BALB/C mice
# [2] = Cell viability (MTT assay) in SK-MEL-28; type: cell-based, Human; details: human, SK-MEL-28 melanoma cells
# Protocol: (§1) Cell Lines/Cells: Human Keratinocytes (HaCaT); Human melanoma (SK-MEL-28); Human PBMCs. Test Item: IS181 Treatment regimen: Single addition—24 h, ^#Multiple additions (3)−72 h; Concentration range: 1 ng/ml-2 mg/ml (triplicate wells); Sera Condition: […] Method of estimation: MTT assay. […] Positive control: Triton-X-100, Doxorubicin Hydrochloride.
# [3] = system: Human melanoma (SK-MEL-28); assay: Cell viability (MTT assay) in SK-MEL-28; type: cell-based
# Protocol: as §1
# [4] = system: VEGF; assay: VEGF inhibition in keratinocytes (ELISA); type: cell-based, Human; design: inhibition of VEGF secretion as compared to untreated (basal) levels: dose or concentration left out as unconfirmed; details: HaCaT; for % Inhibition of VEGF wrt untreated (basal) levels / Conc. of VEGF: 24 h
# Protocol: Cell lines: Human Keratinocytes (HaCaT); test item: IS181; treatment regimen: single addition—24 hours; concentration range: 0.1 μg/ml-100 μg/ml. […] Cells were serum-starved for another 24 hours (0% FBS). Cells were treated with IS181 for 24 hours. Supernatants were collected and stored at −20° C. till analysed. Levels of VEGF were analysed in supernatants by ELISA. Percent inhibition of VEGF secretion was calculated with reference to untreated levels. Positive control: curcumin; retinoic acid (at non-cytotoxic concentrations).
substance,measurement,setting,value
"H-WVQRVVEKFLK-OH [IS181, H-Trp-Val-Gln-Arg-Val-Val-Glu-Lys-Phe-Leu-Lys-OH]",ear thickness (life phase),[1]; 1.2 mg/kg i.m. and i.p,mild reduction in ear thickness
same,spleen weight,[1]; i.p,mild reduction in spleen weight
same,"cytotoxicity at 24 h, 0.001 μg/ml","[2]; SK-MEL-28, 24 h, 0.001 μg/ml",-4.04%
same,"cytotoxicity at 24 h, 0.01 μg/ml","[2]; SK-MEL-28, 24 h, 0.01 μg/ml",-1.91%
same,"cytotoxicity at 24 h, 0.05 μg/ml","[2]; SK-MEL-28, 24 h, 0.05 μg/ml",2.39%
same,"cytotoxicity at 24 h, 0.1 μg/ml","[2]; SK-MEL-28, 24 h, 0.1 μg/ml",-4.93%
same,"cytotoxicity at 24 h, 0.5 μg/ml","[2]; SK-MEL-28, 24 h, 0.5 μg/ml",-1.29%
same,"cytotoxicity at 24 h, 1 μg/ml","[2]; SK-MEL-28, 24 h, 1 μg/ml",-12.5%
same,"cytotoxicity at 24 h, 5 μg/ml","[2]; SK-MEL-28, 24 h, 5 μg/ml",-16.3%
same,"cytotoxicity at 24 h, 10 μg/ml","[2]; SK-MEL-28, 24 h, 10 μg/ml",-14%
same,"cytotoxicity at 24 h, 50 μg/ml","[2]; SK-MEL-28, 24 h, 50 μg/ml",-6.96%
same,"cytotoxicity at 24 h, 100 μg/ml","[2]; SK-MEL-28, 24 h, 100 μg/ml",-2.97%
same,"cytotoxicity at 24 h, 1000 μg/ml","[2]; SK-MEL-28, 24 h, 1000 μg/ml",-11.9%
same,"cytotoxicity at 72 h, 0.1 μg/ml","[2]; SK-MEL-28, 72 h, 0.1 μg/ml",-10.9%
same,"cytotoxicity at 72 h, 0.5 μg/ml","[2]; SK-MEL-28, 72 h, 0.5 μg/ml",-14.2%
same,"cytotoxicity at 72 h, 1 μg/ml","[2]; SK-MEL-28, 72 h, 1 μg/ml",-20%
same,"cytotoxicity at 72 h, 5 μg/ml","[2]; SK-MEL-28, 72 h, 5 μg/ml",9.03%
same,"cytotoxicity at 72 h, 10 μg/ml","[2]; SK-MEL-28, 72 h, 10 μg/ml",6.16%
same,"cytotoxicity at 72 h, 50 μg/ml","[2]; SK-MEL-28, 72 h, 50 μg/ml",-4.36%
same,"cytotoxicity at 72 h, 100 μg/ml","[2]; SK-MEL-28, 72 h, 100 μg/ml",5.78%
same,"cytotoxicity at 72 h, 500 μg/ml","[2]; SK-MEL-28, 72 h, 500 μg/ml",94%
same,"cytotoxicity at 72 h, 1000 μg/ml","[2]; SK-MEL-28, 72 h, 1000 μg/ml",91%
same,"cytotoxicity at 72 h, 2000 μg/ml","[2]; SK-MEL-28, 72 h, 2000 μg/ml",92%
same,IC50,[3]; 24 h,> 700 µM
same,IC50 value,[3]; 24 h,>1000 µg/mL
same,Selectivity Index -IC50 (PBMC)/IC50 (HaCaT/SK-MEL-28 cells),[3]; 24 h,≤2
same,IC50,[3]; 72 h,160 µM
same,Selectivity Index -IC50 (PBMC)/IC50 (HaCaT/SK-MEL-28 cells),[3]; 72 h,4
same,IC50 value,"[3]; SK-MEL-28, 72 h",230 µg/mL
same,cytotoxicity,"[3]; SK-MEL-28, 72 h, concentrations ≥0.5 mg/ml",> 90%
same,cytotoxic effects,"[3]; SK-MEL-28, after 24 h of treatment",no cytotoxic effects
same,inhibition of VEGF secretion as compared to untreated (basal) levels,[4],11.1%-17%
same,% Inhibition of VEGF wrt untreated (basal) levels,[4]; 0.1 μg/ml,17.0%
same,Conc. of VEGF,[4]; 0.1 μg/ml,2982.4 pg/mL
same,% Inhibition of VEGF wrt untreated (basal) levels,[4]; 1 μg/ml,12.6%
same,Conc. of VEGF,[4]; 1 μg/ml,3139.7 pg/mL
same,% Inhibition of VEGF wrt untreated (basal) levels,[4]; 5 μg/ml,11.1%
same,Conc. of VEGF,[4]; 5 μg/ml,3193.5 pg/mL
same,% Inhibition of VEGF wrt untreated (basal) levels,[4]; 10 μg/ml,12.9%
same,Conc. of VEGF,[4]; 10 μg/ml,3128.2 pg/mL
same,% Inhibition of VEGF wrt untreated (basal) levels,[4]; 100 μg/ml,0.7%
same,Conc. of VEGF,[4]; 100 μg/ml,3565.8 pg/mL
